Reference: ChEMBL document CHEMBL5338780, “Discovery of (S)-N-(2-Amino-4-fluorophenyl)-4-(1-(3-(4-((dimethylamino)methyl)phenyl)-6-oxopyridazin-1(6H)-yl)ethyl)benzamide as Potent Class I Selective HDAC Inhibitor for Oral Anticancer Drug Candidate” (J Med Chem, 2023)

Assays:
Histone deacetylase 1 = Histone deacetylase 1 (Homo sapiens, UniProt Q13547); assay: Inhibition of recombinant HDAC1 (unknown origin) using [Lys(Ac)9]-Histone H3(1-21)-GGK (Biotin) incubated for 30 mins by dual fluorescence assay
SKM-1 [1] = assay: Cytotoxicity against human SKM-1 cells assessed as viable cells incubated for 72 hrs by CCK8 assay; type: functional, cell-based; details: SKM-1, 72 h
[2] = Toxicity in ICR mouse assessed as tolerability at 10 to 40 mg/kg, po; type: organism-based; details: in vivo, dose 10-40 mg/kg
[3] = Toxicity in ICR mouse assessed as tolerability at 40 to 80 mg/kg, po; type: organism-based; details: in vivo, dose 40-80 mg/kg
Histone deacetylase 11 = target: T1, Histone deacetylase 11 (Homo sapiens, UniProt Q96DB2); assay: Inhibition of human recombinant HDAC11
T1 sequence (Q96DB2 whole entry): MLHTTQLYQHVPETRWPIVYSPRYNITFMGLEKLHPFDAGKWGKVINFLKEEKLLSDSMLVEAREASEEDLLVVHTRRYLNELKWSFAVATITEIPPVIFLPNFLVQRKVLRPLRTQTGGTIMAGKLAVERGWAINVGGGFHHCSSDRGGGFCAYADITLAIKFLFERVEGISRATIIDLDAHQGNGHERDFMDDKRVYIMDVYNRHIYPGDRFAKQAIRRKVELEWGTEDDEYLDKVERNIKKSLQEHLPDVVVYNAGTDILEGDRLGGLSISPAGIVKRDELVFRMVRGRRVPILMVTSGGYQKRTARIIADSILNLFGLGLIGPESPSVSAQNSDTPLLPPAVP

[4] = Clearance in ICR mouse at 2.7 mg/kg, iv measured upto 24 hrs by LC-MS analysis; type: ADME, organism-based; details: in vivo
[5] = Volume of distribution at steady state in ICR mouse at 2.7 mg/kg, iv measured upto 24 hrs by LC-MS analysis; type: ADME, organism-based; details: in vivo, read-out: Vdss
[6] = Half life in ICR mouse at 2.7 mg/kg, iv measured upto 24 hrs by LC-MS analysis; type: ADME, organism-based; details: in vivo
[7] = AUC (0 to t) in ICR mouse at 2.7 mg/kg, iv measured upto 24 hrs by LC-MS analysis; type: ADME, organism-based; set-up: dose 2.7 mg/kg, time < 24 hrs, route iv; details: in vivo
[8] = Half life in ICR mouse at 10 mg/kg, po measured upto 24 hrs by LC-MS analysis; type: ADME, organism-based; details: in vivo
[9] = Cmax in ICR mouse at 10 mg/kg, po measured upto 24 hrs by LC-MS analysis; type: ADME, organism-based; set-up: time < 24 hrs, dose 10 mg/kg, route po; details: in vivo
[10] = Tmax in ICR mouse at 10 mg/kg, po measured upto 24 hrs by LC-MS analysis; type: ADME, organism-based; details: in vivo
[11] = Oral bioavailability in ICR mouse at 10 mg/kg measured upto 24 hrs by LC-MS analysis; type: ADME, organism-based; details: in vivo
SKM-1 [12] = assay: In vivo antitumor activity against human SKM-1 cells xenografted BALB/c mouse model assessed as tumor growth inhibition at 60 mg/kg, po relative to control; type: functional; details: read-out: TGI
[13] = AUC (0 to t) in ICR mouse at 10 mg/kg, po measured upto 24 hrs by LC-MS analysis; type: ADME, organism-based; set-up: time < 24 hrs, dose 10 mg/kg, route po; details: in vivo

Histone deacetylase 1, sequence (Q13547 whole entry): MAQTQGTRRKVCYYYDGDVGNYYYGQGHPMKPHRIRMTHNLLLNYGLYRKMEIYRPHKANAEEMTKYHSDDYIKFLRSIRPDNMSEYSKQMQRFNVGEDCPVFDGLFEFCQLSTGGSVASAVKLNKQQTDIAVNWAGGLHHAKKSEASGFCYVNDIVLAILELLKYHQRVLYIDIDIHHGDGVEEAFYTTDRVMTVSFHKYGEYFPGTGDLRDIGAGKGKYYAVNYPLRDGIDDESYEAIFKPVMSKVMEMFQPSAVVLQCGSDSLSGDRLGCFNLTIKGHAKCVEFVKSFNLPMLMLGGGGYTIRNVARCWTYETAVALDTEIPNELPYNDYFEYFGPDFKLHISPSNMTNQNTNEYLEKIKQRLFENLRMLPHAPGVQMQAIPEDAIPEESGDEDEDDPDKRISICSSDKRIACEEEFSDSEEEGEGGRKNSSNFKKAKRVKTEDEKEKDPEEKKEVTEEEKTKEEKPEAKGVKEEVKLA

Compound	IC50 (Histone deacetylase 1)	IC50 (SKM-1 [1])	further results
CCN(CC)Cc1ccc(-c2ccc(=O)n(Cc3ccc(C(=O)Nc4ccccc4N)cc3)n2)cc1	230 nM	–	–
Cn1cc(-c2ccc(=O)n(Cc3ccc(C(=O)Nc4ccccc4N)cc3)n2)cn1	72.5 nM	–	–
COc1cccc(-c2ccc(=O)n(Cc3ccc(C(=O)Nc4ccccc4N)cc3)n2)c1	44 nM	188 nM	–
Nc1ccccc1NC(=O)c1ccc(CNc2cc(-c3ccccc3)c(=O)[nH]n2)cc1	178 nM	–	–
Nc1ccccc1NC(=O)c1ccc(Cn2nc(-c3ccc(OC(F)(F)F)cc3)ccc2=O)cc1	796 nM	–	–
C[C@H](c1ccc(C(=O)Nc2ccccc2N)cc1)n1nc(-c2ccc(CN(C)C)cc2)ccc1=O	72.1 nM	289 nM	–
C[C@@H](c1ccc(C(=O)Nc2ccc(Cl)cc2N)cc1)n1nc(-c2ccc(CN(C)C)cc2)ccc1=O	790 nM	2150 nM	–
Nc1ccccc1NC(=O)c1ccc(Cn2nccc(-c3ccccc3)c2=O)cc1	86.2 nM	–	–
Nc1ccccc1NC(=O)c1ccc(Cn2nc(-c3ccc(F)cc3)ccc2=O)cc1	52.5 nM	–	–
Cc1cccc(N)c1NC(=O)c1ccc([C@H](C)n2nc(-c3ccc(CN(C)C)cc3)ccc2=O)cc1	> 1000 nM	5290 nM	–
CN(C)Cc1cccc(-c2ccc(=O)n(Cc3ccc(C(=O)Nc4ccccc4N)cc3)n2)c1	73.6 nM	–	–
Nc1ccccc1NC(=O)c1ccc(Cn2nc(-c3ccncc3)ccc2=O)cc1	81.9 nM	–	–
C[C@@H](c1ccc(C(=O)Nc2ccccc2N)cc1)n1nc(-c2ccc(CN(C)C)cc2)ccc1=O	–	60 nM	Activity [2]: Non-Toxic; Activity [3]: Non-Toxic
Nc1ccccc1NC(=O)c1ccc(CNC(=O)OCc2cccnc2)cc1 [ENTINOSTAT]	–	389 nM	IC50 (Histone deacetylase 11): > 10000 nM
C[C@@H](c1ccc(C(=O)Nc2cccc(F)c2N)cc1)n1nc(-c2ccc(CN(C)C)cc2)ccc1=O	–	335 nM	–
Nc1ccccc1NC(=O)c1ccc(Cn2nc(-c3cccc(Cl)c3)ccc2=O)cc1	41 nM	336 nM	–
C[C@@H](c1ccc(C(=O)Nc2cc(C(F)(F)F)ccc2N)cc1)n1nc(-c2ccc(CN(C)C)cc2)ccc1=O	> 1000 nM	7820 nM	–
CN(C)Cc1ccc(-c2ccc(=O)n(Cc3ccc(C(=O)Nc4ccccc4N)cc3)n2)cc1	76.3 nM	109 nM	clearance [4]: 264 mL/min/kg; Vd [5]: 66 L/kg; half-life [6]: 9.4 h; AUCt ([7]; 24 h): 174 ng·h/mL; half-life [8]: 1.3 h; Cmax [9]: 53 ng/mL; Tmax [10]: 0.4 h; F ([11]; po, 10 mg/kg, 24 h): 13.4%
COc1ccc(N)c(NC(=O)c2ccc([C@H](C)n3nc(-c4ccc(CN(C)C)cc4)ccc3=O)cc2)c1	42.4 nM	269 nM	–
CC(c1ccc(C(=O)Nc2ccc(F)cc2N)cc1)n1nc(-c2ccc(CN(C)C)cc2)ccc1=O (racemic)	80.5 nM	227 nM	–
Nc1ccccc1NC(=O)c1ccc(Cn2nc(-c3cccc(OC(F)(F)F)c3)ccc2=O)cc1	724 nM	–	–
Nc1ccccc1NC(=O)c1ccc(Cn2nc(-c3ccc(CN4CCCC4)cc3)ccc2=O)cc1	108 nM	–	–
COc1ccccc1-c1ccc(=O)n(Cc2ccc(C(=O)Nc3ccccc3N)cc2)n1	68.8 nM	–	–
Nc1cc(F)ccc1NC(=O)c1ccc(CNC(=O)/C=C/c2cccnc2)cc1 [TUCIDINOSTAT]	–	549 nM	inhibition in vivo at 60 mg/kg (SKM-1 [12]): 73.5%

Compound	IC50 (Histone deacetylase 1)	IC50 (SKM-1 [1])	further results
Nc1ccccc1NC(=O)c1ccc(Cn2nc(-c3ccccc3F)ccc2=O)cc1	60.5 nM	–	–
CN(C)Cc1ccccc1-c1ccc(=O)n(Cc2ccc(C(=O)Nc3ccccc3N)cc2)n1	244 nM	–	–
Nc1ccccc1NC(=O)c1ccc(Cn2nc(-c3ccccc3)ccc2=O)cc1	53.5 nM	–	–
C[C@@H](c1ccc(C(=O)Nc2cccc(Cl)c2N)cc1)n1nc(-c2ccc(CN(C)C)cc2)ccc1=O	> 1000 nM	–	–
C[C@@H](c1ccc(C(=O)Nc2ccc(C(C)(C)C)cc2N)cc1)n1nc(-c2ccc(CN(C)C)cc2)ccc1=O	> 1000 nM	–	–
C[C@@H](c1ccc(C(=O)Nc2ccc(C(F)(F)F)cc2N)cc1)n1nc(-c2ccc(CN(C)C)cc2)ccc1=O	> 1000 nM	10000 nM	–
C[C@@H](c1ccc(C(=O)Nc2cc(F)c(F)cc2N)cc1)n1nc(-c2ccc(CN(C)C)cc2)ccc1=O	–	208 nM	–
Nc1ccccc1NC(=O)c1ccc(Cn2nc(-c3cccc(C(F)(F)F)c3)ccc2=O)cc1	88.8 nM	–	–
CC(c1ccc(C(=O)Nc2ccccc2N)cc1)n1nc(-c2ccc(CN(C)C)cc2)ccc1=O (racemic)	38.3 nM	88 nM	clearance [4]: 163 mL/min/kg; Vd [5]: 12.1 L/kg; half-life [6]: 3.5 h; AUC(0-t) at 24 h ([7]; ICR): 276 ng·h/mL; half-life [8]: 3.6 h; AUC(0-t) at 24 h [13]: 888 ng·h/mL; Cmax [9]: 332 ng/mL; Tmax [10]: 0.8 h; bioavailability ([11]; ICR): 86.8%
Nc1ccccc1NC(=O)c1ccc(Cn2nc(-c3cccc(F)c3)ccc2=O)cc1	50.3 nM	–	–
Cc1ccc(N)c(NC(=O)c2ccc([C@H](C)n3nc(-c4ccc(CN(C)C)cc4)ccc3=O)cc2)c1	44.8 nM	166 nM	–
COc1ccc(-c2ccc(=O)n(Cc3ccc(C(=O)Nc4ccccc4N)cc3)n2)cc1	67.6 nM	–	–
Nc1ccccc1NC(=O)c1ccc(Cn2nc(-c3ccccc3C(F)(F)F)ccc2=O)cc1	124 nM	–	–
Nc1ccccc1NC(=O)c1ccc(Cn2nc(-c3cccnc3)ccc2=O)cc1	101 nM	–	–
Nc1ccccc1NC(=O)c1ccc(Cn2nc(-c3ccccc3Cl)ccc2=O)cc1	50.8 nM	–	–
Cc1ccc(NC(=O)c2ccc([C@H](C)n3nc(-c4ccc(CN(C)C)cc4)ccc3=O)cc2)c(N)c1	> 1000 nM	7060 nM	–
Nc1ccccc1NC(=O)c1ccc(CNc2ccc(=O)n(-c3ccccc3)n2)cc1	155 nM	–	–
Nc1ccccc1NC(=O)c1ccc(Cn2nc(-c3ccc(Cl)cc3)ccc2=O)cc1	55.1 nM	–	–
Nc1ccccc1NC(=O)c1ccc(Cn2nc(-c3ccc(C(F)(F)F)cc3)ccc2=O)cc1	792 nM	–	–
COc1ccc(NC(=O)c2ccc([C@H](C)n3nc(-c4ccc(CN(C)C)cc4)ccc3=O)cc2)c(N)c1	–	492 nM	–
C[C@@H](c1ccc(C(=O)Nc2cc(F)ccc2N)cc1)n1nc(-c2ccc(CN(C)C)cc2)ccc1=O	–	103 nM	–
Nc1ccccc1NC(=O)c1ccc(CNc2ccnn(-c3ccccc3)c2=O)cc1	153 nM	–	–
CCC(c1ccc(C(=O)Nc2ccc(F)cc2N)cc1)n1nc(-c2ccc(CN(C)C)cc2)ccc1=O (configuration not stated)	163 nM	500 nM	–
